Source: patent publication US20090148506A1, “LIPOSOMAL FORMULATIONS COMPRISING SECONDARY AND TERTIARY AMINES AND METHODS FOR PREPARING THEREOF” (priority 2005, published 2009)
“Also recorded” adds a separate entry of the source.

Columns and labels:
Type in all cases: physicochemical
[1] = Irinotecan loading into diethanolamine buffered liposomes at 50° C.; settings: 100 mM copper gluconate/140 mM diethanolamine pH 7.0 inside, sucrose/phosphate/EDTA buffer outside, target drug to lipid ratio 0.1 (FIG. 13)
Method: DSPC, cholesterol and DSPG were weighed out into capped scintillation vials. DSPC was dissolved in chloroform at 60 mg/ml, cholesterol was dissolved in chloroform at 25 mg/ml, and DSPG was dissolved in chloroform:methanol:water (50/10/1) at 30 mg/ml. The lipids were then combined in the appropriate proportions. […] A stream of N2 gas, while heating the mixture, was used to remove solvent. The resulting lipid films were left under vacuum for a few minutes, then redissolved in chloroform. The drying process was then repeated, and the lipid films were allowed to dry on a vacuum pump for 4+hours. […] MLVs were extruded at 70° C. through two 100 nm filters for a total of eight passes without difficulty. The liposomes were then allowed to cool down to room temperature. Samples were buffer exchanged into 300 mM sucrose/20 mM phosphate/10 mM EDTA, pH 7.0 by tangential flow. […] Clinical material of Irinotecan was used for a Irinotecan stock. Drug and liposome samples were pre-heated separately at 50° C. for 5 minutes, then combined at t=0. […] Samples of the spun column eluant and the pre-column solution were counted by liquid scintillation counting to determine the lipid concentration at each time point. Irinotecan concentrations were determined using a UV assay. […] Irinotecan is quantitated by absorbance at 370 nm against a standard curve.

[2] = Liposomal drug loading (encapsulation) at 50° C., Sephadex G-50 spin column, UV assay; settings: for increase of irinotecan/lipid molar ratio: TEA containing liposomes (FIG. 10); for irinotecan encapsulation efficiency: 50° C.; for liposomal encapsulation (result in words): 50° C. (FIG. 2)
Method: The lipids were labeled with trace amounts of ^3H-cholesteryl hexadecyl ether, a non-exchangeable, non-metabolizeable lipid marker to allow liposome quantitation by scintillation counting. The solvent was evaporated under a stream of nitrogen and dried under vacuum for at least 4 hours. […] The mean size distribution of the resulting large unilamellar vesicles (80-120 nm) was determined using a Nicomp submicron particle sizer model 370 (Nicomp, Santa Barbara, Calif.). For irinotecan loading, the solutions of irinotecan were made by dissolving the drug either in water at 50° C. or in sucrose phosphate buffer (300 mM sucrose, 40 mM phosphate) at room temperature. When necessary, the pH of the solution was adjusted to the desired value using NaOH. The final concentration of irinotecan was 15 mM. […] The precipitate was isolated by centrifugation (12000 rpm, 15 min) and was solubilized with 2 mM EDTA in water. Similar preparations were employed for daunorubicin. For liposomal loading, the drug solution and the liposomes were incubated separately at 50° C. for approximately five minutes to equilibrate the temperature. […] Aliquots of 75 μl were applied to a Sephadex G-50 spin column. The columns were prepared by adding glass wool to a 1 ml syringe and Sephadex G-50 beads hydrated in sucrose phosphate buffer (300 mM sucrose, 40 mM phosphate, pH 7.0). The columns were packed by spinning at 290×g for 1 minute. Following addition of the sample to the column, the liposome fraction was collected in the void volume by centrifuging at 515×g for 1 minute. Aliquots of the spin column eluant and the pre-column solution were taken and analyzed by liquid scintillation counting to determine the lipid concentration at each time point. The irinotecan concentration in each liposomal fraction was determined using a UV-based assay. […] The samples were cooled to ambient temperature. The absorbance at 370 nm was measured and compared to a standard curve. The concentration of TEA was determined by HPLC.

[3] = Lactone/carboxylate form of irinotecan in solution (FTIR, HPLC)
Description: FTIR measurements were made at room temperature in transmission mode using a Nicolet Nexus 870 spectrometer (Nicolet Instrument, Madison, Wis., USA) equipped with a liquid nitrogen-cooled mercury cadmium telluride detector. […] Inc. Buena, N.J.). The sample was dried with a stream of nitrogen and left overnight in a desiccator before recording the spectra. For each spectrum, 250 scans were co-added at a 4 cm^−1 resolution, using a Happ-Genzel apodization. Data analysis was done using the Grams AI software (Galactic Industries, Salem, N.H., USA). The second derivative of the spectra was performed to determine the frequency of the components of unresolved bands. Vibrational spectroscopy was used to further investigate the potential interaction between irinotecan and copper in free solution. […] Since irinotecan has several possible binding sites, tentative assignment of the bands of the spectra to its functional groups was performed in order to identify which group is involved in an interaction with copper gluconate/TEA. The C═O stretching absorption bands appear in the region of 1870-1540 cm^−1. The position of the carbonyl bands is affected by several factors including intermolecular and intramolecular hydrogen bonding. […] This conversion to the carboxylate form was confirmed by HPLC analysis. […]

Row | SMILES | liposomal encapsulation (result in words) [1] | liposomal loading (result in words) ([2]; TEA buffered internal solution pH 7.0, external phosphate buffer pH 7.0, 50° C. (FIG. 1)) | increase of irinotecan/lipid molar ratio ([2]; after 2 min at 50° C.) | increase of irinotecan/lipid molar ratio ([2]; after 60 min at 50° C.) | irinotecan encapsulation efficiency ([2]; copper gluconate/TEA containing liposomes (100 mM copper gluconate/180 mM TEA, pH 7.0)) | irinotecan concentration inside the liposomes upon encapsulation ([2]; intra-liposomal) [mM] | irinotecan encapsulation efficiency ([2]; liposomes containing 10 mM sodium gluconate/180 mM TEA, pH 7.0) [%] | irinotecan encapsulation efficiency ([2]; liposomes containing TEA/phosphate buffer (150 mM TEA, 95 mM phosphate, pH 7.0), 0.2:1 drug to lipid (mol:mol)) | drug loading (result in words) ([2]; liposomes containing copper gluconate adjusted to pH 7.0 with NaOH (no TEA)) | drug encapsulation (result in words) ([2]; liposomes containing sucrose phosphate buffer (no TEA)) | reduction of the amount of drug loading ([2]; liposomes with 100 mM copper gluconate, TEA decreased to 90 mM, pH 7.0 (FIG. 11)) [%] | irinotecan encapsulation ([2]; liposomes with 100 mM copper gluconate, TEA increased to 270 mM, pH 7.0 (FIG. 11)) | form of irinotecan in solution ([3]; pH 7.0 (data not shown)) | form of irinotecan in solution ([3]; pH 8.7, confirmed by HPLC) | liposomal encapsulation (result in words) ([2]; triethanolamine hydrochloride internal solution, pH 7.0) | liposomal encapsulation (result in words) ([2]; triethanolamine/sodium gluconate/HCl internal solution, pH 7.0)
1 | CCc1c2c(nc3ccc(OC(=O)N4CCC(N5CCCCC5)CC4)cc13)-c1cc3c(c(=O)n1C2)COC(=O)[C@]3(O)CC [irinotecan] | successfully encapsulated | successfully loaded | 0.08 μmol irinotecan/μmol lipid | 0.13 μmol irinotecan/μmol lipid | approximately 70% | > 50 | 70 | approximately 70% | negligible; also recorded: no loading | no drug encapsulation | 50 | approximately 90% | predominantly in its lactone form | primarily in the carboxylate form |  | 
2 | COc1cccc2c1C(=O)c1c(O)c3c(c(O)c1C2=O)C[C@@](O)(C(C)=O)C[C@@H]3O[C@H]1C[C@H](N)[C@H](O)[C@H](C)O1 [daunorubicin] |  |  |  |  |  |  |  |  |  |  |  |  |  |  | successfully encapsulated | successfully encapsulated
